Assay results published in patent publication US20240140947A1, “COMPOUND FOR THE TREATMENT OF CANCER” (priority 2022, published 2024).

How the values were obtained:
[1] = system: MCF7, T47D, and HCC1428 parental ER+ breast cancer cell lines; experiment: Cell proliferation assay, parental ER+ breast cancer cell lines (range over lines); format: cell-based; details: Homo sapiens, read-out: anti-proliferation IC50 values, range over cell lines
Experimental: (§1) OVCAR3, MCF7, T47D, HCC1428, NCIH2087, NCIH358 or A549cells were seeded 1-3000 cells/well in 96-well plates in growth media containing 10% FBS and cultured overnight at 37° C. 5% CO2. The following day, compounds were serially diluted from a 10 mM top dose for an 11-point 3-fold dilution curve in DMSO. Compound 1 and PF-06873600 were intermediately diluted 1:200 into growth media prior to diluting 1:5 on cells for final concentration 10 μM to 0.1 nM in 0.1% DMSO on cells. Cells were incubated at 37° C. 5% CO2 for 7 days. CYQUANT Direct Cell Proliferation Assay (Molecular Probes, Eugene, OR) was then performed following manufacturer recommendations to determine the relative viable cell numbers on the Perkin Elmer Envision 2104 Multi Label Reader at 508 nm excitation and 527 nm emission wavelengths. IC50 values were calculated by concentration-response curve fitting utilizing a four-parameter analytical method using GraphPad Prism software.
(§2) The effect of Compound 1 on cell proliferation was assessed in multiple ER+ breast cancer cell lines, including parental and palbociclib resistant cell lines.
(§3) Similar results were shown with NCIH2087, NCIH358, and A549 NSCLC cell lines ([…].4).

[2] = system: palbociclib resistant (PalboR) derivatives of MCF7, T47D, and HCC1428; experiment: Cell proliferation assay, palbociclib resistant derivatives (range over lines); format: cell-based; details: Homo sapiens, read-out: anti-proliferation IC50 values, range over cell lines
Experimental: as §1, §2, §3

[3] = Human blood-to-plasma partition ratio (BPR); format: in vitro ADME; design: dose or concentration left out as unconfirmed; details: fresh whole blood, 37° C.
Experimental: Compound 1 has been evaluated according to methods well known in the art, for its ability to partition between human plasma and blood. Based on the observed partitioning and plasma protein binding, the blood binding was estimated based on human blood unbound fraction (fub)=human plasma unbound fraction (fup)/human blood-to-plasma partition ratio (BPR). […] At the end of the incubations, blood and plasma samples were matrix-matched and analyzed by LC-MS/MS. BPR was calculated by dividing the blood and plasma measure peak areas.

[4] = Preliminary assessment of metabolism (hepatocytes, human liver microsomes, plasma after oral dosing); format: in vitro ADME, rat, rabbit; details: hepatocytes of six species, plasma from monkey, dog and mouse
Experimental: A preliminary assessment of the metabolism of Compound 1 was conducted using mouse, rat, rabbit, dog, monkey and human hepatocytes; human liver microsomes; plasma from monkey, dog and mouse studies following oral dosing. The primary metabolic pathway of Compound 1 was oxidation.

With C[C@@]1(O)CCC[C@H]1n1c(=O)c(CC(F)F)cc2cnc(NC3CCN(S(N)(=O)=O)CC3)nc21 [Compound 1, 4-({6-(2,2-difluoroethyl)-8-[(1R,2R)-2-hydroxy-2-methylcyclopentyl]-7-oxo-7,8-dihydropyrido[2,3-d]pyrimidin-2-yl}amino)piperidine-1-sulfonamide] the IC50 [1] was 14.3 to 17.6 nM, the IC50 [2] was 37.3 to 65.7 nM and the blood plasma ratio at 1 h [3] was 79. For the same molecule, the primary metabolic pathway [4] was “oxidation”.
